US9637483B2, “Heterocyclic compound” (TAKEDA PHARMACEUTICAL COMPANY LIMITED, priority 2013, dated 2017)

Assays:
Assay type in all cases: biochemical
JAK2 = target: T1, JAK2 (Homo sapiens, UniProt O60674); assay: JAK2 enzyme inhibition test (LANCE method); settings: 1 μM test compound; read-out: JAK2 enzyme inhibitory activity (%, 1 μM)
T1 construct: purchased Invitrogen
Description: (§1) JAK2 enzyme inhibitory activity of test compounds was measured by the LANCE method (PerkinElmer). First, a test compound diluted with assay buffer (50 mM HEPES (pH 7.5), 10 mM MgCl2, 1 mM EGTA, 2 mM DTT, 0.01% Tween20, 0.01% BSA) was added to a 384-well plate by 2 μL each. Then, a JAK2 (Invitrogen) solution and a fluorescence-labeled peptide substrate (ULight-JAK1, PerkinElmer) solution diluted with assay buffer to 6 ng/mL and 300 nM, respectively, were added by 2 μL each. Then, an enzyme reaction was started by adding 2 μL each of ATP solution prepared with assay buffer to 45 μM. After the reaction at room temperature for 1 hr, Detection Buffer (PerkinElmer) prepared to contain 20 mM EDTA, 4 nM europium-labeled anti-phosphotyrosine antibody (PerkinElmer) was added by 6 μL each. After standing at room temperature for 1 hr, fluorescence intensity (excitation wavelength 340 nm, fluorescence wavelength 665 nm, delay time 100 microseconds) was measured by a plate reader, Envision (PerkinElmer). The inhibitory activity of each compound was calculated as a relative activity value to the fluorescence intensity of a well free of enzyme as 100% inhibition.

JAK1 = target: T2, JAK1 (Homo sapiens, UniProt P23458); assay: JAK1 enzyme inhibition test (LANCE method); settings: 1 μM test compound; read-out: JAK1 enzyme inhibitory activity (%, 1 μM)
T2 construct: purchased Invitrogen
Description: as §1, with “JAK1 enzyme” for “JAK2 enzyme”, “a JAK1” for “a JAK2”, “to 187.5” for “to 6”, “to 150” for “to 45”

TYK2 = target: T3, TYK2 (Homo sapiens, UniProt P29597); assay: TYK2 enzyme inhibition test (LANCE method); settings: 1 μM test compound; read-out: TYK2 enzyme inhibitory activity (%, 1 μM)
T3 construct: purchased Invitrogen
Description: as §1, with “TYK2 enzyme” for “JAK2 enzyme”, “a TYK2” for “a JAK2”, “to 375” for “to 6”, “to 30” for “to 45”

JAK3 = target: T4, JAK3 (Homo sapiens, UniProt P52333); assay: JAK3 enzyme inhibition test (LANCE method); settings: 1 μM test compound; read-out: JAK3 enzyme inhibitory activity (%, 1 μM)
T4 construct: purchased Invitrogen
T4 sequence (P52333 1-1124): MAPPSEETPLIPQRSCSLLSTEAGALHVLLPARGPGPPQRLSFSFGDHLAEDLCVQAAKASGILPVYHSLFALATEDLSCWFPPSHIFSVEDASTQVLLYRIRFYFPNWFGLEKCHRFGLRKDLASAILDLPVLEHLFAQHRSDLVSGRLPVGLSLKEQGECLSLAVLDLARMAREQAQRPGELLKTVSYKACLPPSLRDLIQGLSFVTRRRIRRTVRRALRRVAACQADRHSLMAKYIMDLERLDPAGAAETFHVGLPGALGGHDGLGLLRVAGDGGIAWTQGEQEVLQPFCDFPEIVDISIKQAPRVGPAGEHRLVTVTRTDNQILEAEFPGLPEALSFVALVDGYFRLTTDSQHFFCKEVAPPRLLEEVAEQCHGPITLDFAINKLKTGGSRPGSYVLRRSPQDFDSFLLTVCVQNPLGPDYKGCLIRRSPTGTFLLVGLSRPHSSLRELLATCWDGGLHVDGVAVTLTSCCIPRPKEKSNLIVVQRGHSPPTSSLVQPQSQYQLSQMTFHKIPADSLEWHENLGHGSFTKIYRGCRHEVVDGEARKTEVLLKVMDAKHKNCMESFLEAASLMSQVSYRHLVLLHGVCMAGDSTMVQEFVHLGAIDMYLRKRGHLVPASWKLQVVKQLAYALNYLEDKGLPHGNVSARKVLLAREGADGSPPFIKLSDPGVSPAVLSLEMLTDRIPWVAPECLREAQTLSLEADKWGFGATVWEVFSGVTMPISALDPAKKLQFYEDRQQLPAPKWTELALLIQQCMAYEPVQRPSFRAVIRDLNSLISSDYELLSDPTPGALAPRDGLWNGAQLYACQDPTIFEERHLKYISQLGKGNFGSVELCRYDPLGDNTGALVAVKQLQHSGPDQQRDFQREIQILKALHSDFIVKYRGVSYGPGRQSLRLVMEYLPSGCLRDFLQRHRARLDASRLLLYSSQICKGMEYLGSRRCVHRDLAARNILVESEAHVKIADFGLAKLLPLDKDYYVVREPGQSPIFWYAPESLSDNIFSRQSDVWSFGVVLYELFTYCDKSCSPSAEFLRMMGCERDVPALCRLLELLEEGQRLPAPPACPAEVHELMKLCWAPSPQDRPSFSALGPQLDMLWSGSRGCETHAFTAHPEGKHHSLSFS
Description: as §1, with “JAK3 enzyme” for “JAK2 enzyme”, “a JAK3” for “a JAK2”, “to 12” for “to 6”, “to 15” for “to 45”

T2 sequence (P23458 whole entry): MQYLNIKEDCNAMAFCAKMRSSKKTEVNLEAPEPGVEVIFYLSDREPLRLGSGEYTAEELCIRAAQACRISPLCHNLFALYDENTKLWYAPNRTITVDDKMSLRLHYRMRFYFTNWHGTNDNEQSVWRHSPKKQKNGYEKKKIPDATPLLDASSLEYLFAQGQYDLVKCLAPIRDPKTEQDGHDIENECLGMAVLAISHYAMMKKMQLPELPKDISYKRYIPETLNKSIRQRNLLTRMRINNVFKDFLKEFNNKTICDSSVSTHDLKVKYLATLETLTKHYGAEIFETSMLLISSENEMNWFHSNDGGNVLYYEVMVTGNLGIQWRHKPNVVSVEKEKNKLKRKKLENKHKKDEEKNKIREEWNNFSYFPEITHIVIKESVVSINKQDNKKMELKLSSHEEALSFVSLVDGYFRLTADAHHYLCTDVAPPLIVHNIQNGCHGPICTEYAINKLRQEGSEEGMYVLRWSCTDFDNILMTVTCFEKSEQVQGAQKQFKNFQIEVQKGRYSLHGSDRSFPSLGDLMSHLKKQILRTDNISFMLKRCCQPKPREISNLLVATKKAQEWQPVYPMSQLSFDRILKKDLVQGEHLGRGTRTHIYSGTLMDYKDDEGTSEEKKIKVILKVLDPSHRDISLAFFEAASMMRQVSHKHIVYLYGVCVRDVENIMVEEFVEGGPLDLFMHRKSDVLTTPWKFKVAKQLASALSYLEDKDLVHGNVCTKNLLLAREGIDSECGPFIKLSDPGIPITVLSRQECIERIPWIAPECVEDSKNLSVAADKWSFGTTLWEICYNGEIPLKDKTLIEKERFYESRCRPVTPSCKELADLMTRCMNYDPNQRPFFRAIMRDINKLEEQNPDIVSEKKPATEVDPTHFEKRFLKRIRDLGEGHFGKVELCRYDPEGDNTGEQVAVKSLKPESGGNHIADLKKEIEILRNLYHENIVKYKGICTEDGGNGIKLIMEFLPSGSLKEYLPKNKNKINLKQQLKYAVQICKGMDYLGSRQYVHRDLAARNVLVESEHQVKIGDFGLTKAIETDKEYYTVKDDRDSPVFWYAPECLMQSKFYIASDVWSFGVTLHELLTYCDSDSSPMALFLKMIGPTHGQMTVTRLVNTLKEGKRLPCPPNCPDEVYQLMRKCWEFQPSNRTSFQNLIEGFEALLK
T3 sequence (P29597 whole entry): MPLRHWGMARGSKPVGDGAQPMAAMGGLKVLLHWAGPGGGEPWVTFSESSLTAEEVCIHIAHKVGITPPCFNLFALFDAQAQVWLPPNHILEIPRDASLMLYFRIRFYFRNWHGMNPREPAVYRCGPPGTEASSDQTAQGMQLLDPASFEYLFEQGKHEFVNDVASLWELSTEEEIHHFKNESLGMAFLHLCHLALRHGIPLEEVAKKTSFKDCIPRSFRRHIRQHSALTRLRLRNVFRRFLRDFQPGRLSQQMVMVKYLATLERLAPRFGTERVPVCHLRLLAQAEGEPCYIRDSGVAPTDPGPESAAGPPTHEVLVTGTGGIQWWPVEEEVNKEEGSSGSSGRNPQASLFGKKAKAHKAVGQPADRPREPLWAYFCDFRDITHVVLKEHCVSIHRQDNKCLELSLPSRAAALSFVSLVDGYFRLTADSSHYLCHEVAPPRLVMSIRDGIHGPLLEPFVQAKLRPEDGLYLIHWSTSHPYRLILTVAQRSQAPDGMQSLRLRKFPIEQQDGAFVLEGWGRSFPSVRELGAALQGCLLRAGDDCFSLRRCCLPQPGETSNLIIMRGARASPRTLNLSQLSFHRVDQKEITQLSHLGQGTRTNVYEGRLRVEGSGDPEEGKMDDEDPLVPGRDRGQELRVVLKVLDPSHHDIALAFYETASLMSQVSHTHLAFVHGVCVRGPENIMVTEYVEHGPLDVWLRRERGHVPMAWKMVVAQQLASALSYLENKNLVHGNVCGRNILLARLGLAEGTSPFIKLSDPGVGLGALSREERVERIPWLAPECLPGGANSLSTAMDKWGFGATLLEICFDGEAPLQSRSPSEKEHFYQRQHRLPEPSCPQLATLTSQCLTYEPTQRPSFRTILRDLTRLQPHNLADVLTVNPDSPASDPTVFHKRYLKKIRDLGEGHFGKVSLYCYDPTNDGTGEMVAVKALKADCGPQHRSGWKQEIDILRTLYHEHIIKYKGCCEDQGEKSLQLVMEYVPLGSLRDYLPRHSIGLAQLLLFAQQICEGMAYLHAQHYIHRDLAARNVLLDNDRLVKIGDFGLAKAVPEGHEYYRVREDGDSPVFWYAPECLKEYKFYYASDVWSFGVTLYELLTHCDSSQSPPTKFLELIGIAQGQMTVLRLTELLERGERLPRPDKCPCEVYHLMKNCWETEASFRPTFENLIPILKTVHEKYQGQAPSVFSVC
T1 sequence (O60674 whole entry): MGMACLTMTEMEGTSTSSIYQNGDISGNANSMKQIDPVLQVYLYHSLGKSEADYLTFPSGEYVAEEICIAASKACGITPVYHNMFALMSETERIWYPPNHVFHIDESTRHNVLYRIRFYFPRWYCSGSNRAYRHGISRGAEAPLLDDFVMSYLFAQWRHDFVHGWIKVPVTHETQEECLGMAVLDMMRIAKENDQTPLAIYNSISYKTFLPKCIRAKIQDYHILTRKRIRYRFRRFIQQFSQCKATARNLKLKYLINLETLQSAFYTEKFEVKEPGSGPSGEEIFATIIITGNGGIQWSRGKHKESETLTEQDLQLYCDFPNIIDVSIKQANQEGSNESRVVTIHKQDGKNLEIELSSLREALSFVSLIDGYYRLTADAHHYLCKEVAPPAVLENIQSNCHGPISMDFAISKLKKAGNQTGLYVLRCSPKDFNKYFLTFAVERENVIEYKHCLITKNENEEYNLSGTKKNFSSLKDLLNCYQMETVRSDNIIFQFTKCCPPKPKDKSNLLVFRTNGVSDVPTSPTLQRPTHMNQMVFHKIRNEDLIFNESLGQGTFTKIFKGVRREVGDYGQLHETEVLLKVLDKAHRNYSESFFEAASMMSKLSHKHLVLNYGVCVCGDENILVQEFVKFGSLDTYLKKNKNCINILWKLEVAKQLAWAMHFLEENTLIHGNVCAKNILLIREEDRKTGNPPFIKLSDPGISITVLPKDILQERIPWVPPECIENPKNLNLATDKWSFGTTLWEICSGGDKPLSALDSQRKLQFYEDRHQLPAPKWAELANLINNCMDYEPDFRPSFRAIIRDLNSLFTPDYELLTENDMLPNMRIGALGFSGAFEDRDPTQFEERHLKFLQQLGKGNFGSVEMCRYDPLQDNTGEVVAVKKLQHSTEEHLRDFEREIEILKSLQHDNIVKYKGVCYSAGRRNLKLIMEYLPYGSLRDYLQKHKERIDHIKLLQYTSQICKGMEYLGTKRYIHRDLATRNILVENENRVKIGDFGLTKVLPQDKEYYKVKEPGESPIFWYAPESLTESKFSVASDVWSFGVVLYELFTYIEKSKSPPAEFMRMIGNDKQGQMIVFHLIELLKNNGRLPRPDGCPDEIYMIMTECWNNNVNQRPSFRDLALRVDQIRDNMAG

Row | inhibition at 1 µM (JAK2) | inhibition at 1 µM (JAK1) | inhibition at 1 µM (TYK2) | inhibition at 1 µM (JAK3) | SMILES
1 | 98% | 96% | 99% | 99% | CC(C)[C@H](C)n1cc(-c2cc(N3CCN(C)CC3)n(C)n2)c2[nH]nc(N)c2c1=O [Example 10, 3-amino-5-((2S)-3-methylbutan-2-yl)-7-(1-methyl-5-(4-methylpiperazin-1-yl)-1H-pyrazol-3-yl)-1,5-dihydro-4H-pyrazolo[4,3-c]pyridin-4-one]
2 | 99% | 93% | 100% | 99% | CC(C)[C@H](C)n1cc(-c2cc(N3CCS(=O)(=O)CC3)n(C)n2)c2[nH]nc(N)c2c1=O [Example 12, 3-amino-7-(5-(1,1-dioxidothiomorpholin-4-yl)-1-methyl-1H-pyrazol-3-yl)-5-((2S)-3-methylbutan-2-yl)-1,5-dihydro-4H-pyrazolo[4,3-c]pyridin-4-one]
3 | 99% | 97% | 100% | 99% | CC(C)[C@H](C)n1cc(-c2cc(N3CCCOCC3)n(C)n2)c2[nH]nc(N)c2c1=O [Example 13, 3-amino-5-((2S)-3-methylbutan-2-yl)-7-(1-methyl-5-(1,4-oxazepan-4-yl)-1H-pyrazol-3-yl)-1,5-dihydro-4H-pyrazolo[4,3-c]pyridin-4-one]
4 | 99% | 97% | 100% | 100% | CC(C)[C@H](C)n1cc(-c2cc(N3CCC(F)(F)CC3)n(C)n2)c2[nH]nc(N)c2c1=O [Example 16, 3-amino-7-(5-(4,4-difluoropiperidin-1-yl)-1-methyl-1H-pyrazol-3-yl)-5-((2S)-3-methylbutan-2-yl)-1,5-dihydro-4H-pyrazolo[4,3-c]pyridin-4-one]

The next lines start with the compound.

Row | SMILES | inhibition at 1 µM (JAK2) | inhibition at 1 µM (JAK1) | inhibition at 1 µM (TYK2) | inhibition at 1 µM (JAK3)
5 | C[C@@H](C1CC1)n1cc(-c2cc(C(C)(C)O)n(C)n2)c2[nH]nc(N)c2c1=O [Example 7, 3-amino-5-((1S)-1-cyclopropylethyl)-7-(5-(2-hydroxypropan-2-yl)-1-methyl-1H-pyrazol-3-yl)-1,5-dihydro-4H-pyrazolo[4,3-c]pyridin-4-one] | 100% | 100% | 99% | 100%
6 | C[C@@H](C1CC1)n1cc(-c2cc(N3CCC(C)(O)CC3)n(C)n2)c2[nH]nc(N)c2c1=O [Example 8, 3-amino-5-((1S)-1-cyclopropylethyl)-7-(5-(4-hydroxy-4-methylpiperidin-1-yl)-1-methyl-1H-pyrazol-3-yl)-1,5-dihydro-4H-pyrazolo[4,3-c]pyridin-4-one] | 99% | 99% | 99% | 100%
7 | CC(C1CC1)n1cc(-c2cc(CN3CCS(=O)(=O)CC3)n(C)n2)c2[nH]nc(N)c2c1=O (stereo not shown) [Example 9, 3-amino-5-(1-cyclopropylethyl)-7-(5-((1,1-dioxidothiomorpholin-4-yl)methyl)-1-methyl-1H-pyrazol-3-yl)-1,5-dihydro-4H-pyrazolo[4,3-c]pyridin-4-one] | 99% | 98% | 99% | 100%
8 | CC(=O)N1CCN(c2cc(-c3cn([C@@H](C)C(C)C)c(=O)c4c(N)n[nH]c34)nn2C)CC1 [Example 11, 7-(5-(4-acetylpiperazin-1-yl)-1-methyl-1H-pyrazol-3-yl)-3-amino-5-((2S)-3-methylbutan-2-yl)-1,5-dihydro-4H-pyrazolo[4,3-c]pyridin-4-one] | 99% | 98% | 100% | 99%
9 | COC1CCN(c2cc(-c3cn([C@@H](C)C(C)C)c(=O)c4c(N)n[nH]c34)nn2C)CC1 [Example 14, 3-amino-7-(5-(4-methoxypiperidin-1-yl)-1-methyl-1H-pyrazol-3-yl)-5-((2S)-3-methylbutan-2-yl)-1,5-dihydro-4H-pyrazolo[4,3-c]pyridin-4-one] | 99% | 97% | 99% | 99%
10 | CC(C)[C@H](C)n1cc(-c2cc(N3CCC(C(C)(C)O)CC3)n(C)n2)c2[nH]nc(N)c2c1=O [Example 15, 3-amino-7-(5-(4-(2-hydroxypropan-2-yl)piperidin-1-yl)-1-methyl-1H-pyrazol-3-yl)-5-((2S)-3-methylbutan-2-yl)-1,5-dihydro-4H-pyrazolo[4,3-c]pyridin-4-one] | 99% | 97% | 100% | 100%
